# Reference: patent EP0184471A1, “Product containing an antiprogestomimetic and a uterotonic substance” (ROUSSEL-UCLAF, priority 1984, dated 1986)
# Marks after values point to notes of the source that are not given here.
# System: grossesse apparemment normale et une aménorhée de 49 jours au plus
# Assay: Clinical study of termination of early pregnancy: oral RU 486 alone or with an intramuscular sulprostone injection
# Format: in vivo, jeunes femmes
# Procedure: L'étude a porté sur 33 jeunes femmes en bonne santé présentant une grossesse apparemment normale et une aménorhée de 49 jours au plus.
# Le composé RU 486 a été administré oralement à différentes doses : • 1) 25 mg 2 fois par jour pendant 4 jours. • 2) 25 mg 4 fois par jour pendant 4 jours.
# Chez 16 patientes une injection intramusculaire de 0,25 mg de la méthylsulfonylamide de la 16-phénoxytétranor PG E2 (sulprostone) a été administrée le matin du dernier jour de traitement par le RU 486. Les sujets ont jeuné au moins une heure avant jusqu'à une heure après la prise du produit.
# Les résultats obtenus sont rapportés dans le tableau I ci-après.
# [1] = number of patients, RU 486 25 mg orally 2 times per day for 4 days (25 x 2), n=11 group A, n=9 group B
# [2] = number of patients, RU 486 25 mg orally 4 times per day for 4 days (25 x 4), n=6 group A, n=7 group B
# [3] = number of patients, Total of both RU 486 doses, n=17 group A, n=16 group B
# [4] = percent of patients, Total of both RU 486 doses, n=17 group A
compound,measurement,setting,value
"CC#C[C@]1(O)CC[C@H]2[C@@H]3CCC4=CC(=O)CCC4=C3[C@@H](c3ccc(N(C)C)cc3)C[C@@]21C [RU 486, 11β-(4-diméthylaminophényl) 170 - hydroxy 17α-(prop-l-ynyl) estra 4,9 - dièn 3 - one]",Avortements complets,[1],8
same,Avortements incomplets,[1],1
same,Poursuite de la grossesse,"number of patients, RU 486 25 mg orally 2 times per day for 4 days (25 x 2), n=11 group A, n=9 group B, group A value includes one extra-uterine pregnancy",2*
same,Avortements complets,[2],5
same,Avortements incomplets,[2],0
same,Poursuite de la grossesse,[2],1
same,Avortements complets,[3],13
same,Avortements incomplets,[3],1
same,Poursuite de la grossesse,[3],3
same,Avortements incomplets,[4],"5,9%"
same,Poursuite de la grossesse,[4],"17,6%"
same,Avortements complets,"percent of patients, Total of both RU 486 doses, n=17 group A, n=16 group B","76,5%"
